Some test systems named below: 786-0 renal; HOP-62 NSCLC; RXF 393 renal; M14 melanoma; SF-268 CNS; HCT-116 colon; HCC-2998 colon; SF-539 CNS; MDA-MB-435; EKVX NSCLC; OVCAR-3 ovarian; SNB-19 CNS; OVCAR-5 ovarian; SNB-75 CNS; CAKI-1 renal; NCI-H226 lung; NCI-H23 lung; MDA-N; HL-60(TB) leukemia; T-47D breast.
Holding throughout (experiment): inhibition of tumour cell growth, NCI panel, 48 h

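A five-concentration, 48-hour dose response in 96-well plates underlies each endpoint, interpolated linearly between surrounding concentrations. TGI denotes the concentration required for complete inhibition of growth.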

For `NC(CCC(=O)NC(CSC(=O)N(O)c1ccc(Cl)cc1)C(=O)NCC(=O)O)C(=O)O` (configuration not stated), the TGI in the test on 786-0 renal, with HOP-62 NSCLC, in the test with RXF 393 renal, with M14 melanoma, with SF-268 CNS and in the test with HCT-116 colon was above 0.5 µM each time. Also, the TGI in the test with HCC-2998 colon, in the test on SF-539 CNS, in the test on MDA-MB-435, in the test on EKVX NSCLC, in the test on OVCAR-3 ovarian and in the test on SNB-19 CNS was above 0.5 µM in each case. Besides, the TGI in the test with OVCAR-5 ovarian, with SNB-75 CNS, with CAKI-1 renal, in the test with NCI-H226 lung, in the test with NCI-H23 lung and in the test with MDA-N was above 0.5 µM in each case.
For `CSC1=N/C(=C\c2ccccc2)C(=O)N1CN1CCOCC1`, the TGI in the test on 786-0 renal, in the test on HOP-62 NSCLC, in the test on HL-60(TB) leukemia, with M14 melanoma, in the test on SF-268 CNS and with HCT-116 colon was above 100 µM in each case. Besides, the TGI in the test with MDA-MB-435, with EKVX NSCLC, with OVCAR-3 ovarian, in the test on SNB-19 CNS, with OVCAR-5 ovarian and with SNB-75 CNS was above 100 µM throughout. Moreover, the TGI in the test on NCI-H226 lung, in the test on NCI-H23 lung and with MDA-N was above 100 µM throughout.
In the case of `O=C(Nc1ccccc1)c1cc2c(cc1Cl)SC(NNCCO)=NS2(=O)=O`, the TGI with 786-0 renal, in the test on HOP-62 NSCLC, in the test on RXF 393 renal, with HL-60(TB) leukemia, in the test on M14 melanoma and with SF-268 CNS was above 100 µM throughout. The TGI in the test with HCT-116 colon, with HCC-2998 colon, in the test with SF-539 CNS, in the test with MDA-MB-435, in the test with EKVX NSCLC and in the test with SNB-19 CNS was above 100 µM in each case. The TGI with T-47D breast, with SNB-75 CNS, with CAKI-1 renal, with NCI-H226 lung and in the test on NCI-H23 lung was above 100 µM in each case.
As for `CC(C)[Si](Oc1cc2c3c(ccc2c(O)c1[C@@H](C)CO[Si](C)(C)C(C)(C)C)C(C)(C)CCC3)(C(C)C)C(C)C`, the TGI in the test on 786-0 renal was above 100 µM; in the test with HOP-62 NSCLC, above 100 µM; with RXF 393 renal it was above 100 µM; in the test on HL-60(TB) leukemia, 43.4 µM; in the test with M14 melanoma, above 100 µM; with SF-268 CNS, above 100 µM. Further, the TGI in the test with HCT-116 colon, in the test on SF-539 CNS, in the test with MDA-MB-435, in the test on EKVX NSCLC, with OVCAR-3 ovarian and in the test on SNB-19 CNS was above 100 µM throughout. The TGI in the test on OVCAR-5 ovarian, in the test on SNB-75 CNS, in the test on CAKI-1 renal, in the test with NCI-H226 lung, in the test on NCI-H23 lung and with MDA-N was above 100 µM each time.
In the case of `Nc1nc(NNc2ccccc2F)cc(=O)[nH]1`, the TGI in the test with 786-0 renal, in the test with HOP-62 NSCLC, in the test on HL-60(TB) leukemia, in the test with M14 melanoma, with HCT-116 colon and in the test with HCC-2998 colon was above 100 µM in each case. For the same compound, the TGI in the test with SF-539 CNS, with MDA-MB-435, in the test on EKVX NSCLC, with OVCAR-3 ovarian, with SNB-19 CNS and in the test with OVCAR-5 ovarian was above 100 µM each time. The TGI with NCI-H226 lung and in the test with MDA-N was above 100 µM in each case.
As to `CCCC1=NC(C(F)(F)F)(C(F)(F)F)N=C(N2CCOCC2)O1`, the TGI in the test with 786-0 renal, in the test with HOP-62 NSCLC, in the test with RXF 393 renal, in the test with HL-60(TB) leukemia, in the test with M14 melanoma and in the test with SF-268 CNS was above 100 µM throughout. Moreover, the TGI in the test on HCT-116 colon, in the test with HCC-2998 colon, in the test on SF-539 CNS, in the test on MDA-MB-435, in the test on EKVX NSCLC and in the test with OVCAR-3 ovarian was above 100 µM throughout. The TGI in the test with SNB-19 CNS, in the test on T-47D breast, with OVCAR-5 ovarian, in the test on SNB-75 CNS, in the test on CAKI-1 renal and with NCI-H226 lung was above 100 µM in each case. The TGI with NCI-H23 lung is above 100 µM.
For `O=C(OCC(Cl)(Cl)Cl)N1CC[C@@H](C2CCCCC2)C1`, the TGI was determined as 43 µM in the test with 786-0 renal; 38 µM in the test with HOP-62 NSCLC; 37.1 µM in the test on RXF 393 renal; 96.5 µM with M14 melanoma; 34.3 µM in the test on SF-268 CNS; 80.7 µM in the test on HCT-116 colon. The TGI with HCC-2998 colon is 36.7 µM; in the test on EKVX NSCLC, 51.7 µM; with OVCAR-3 ovarian, 32.2 µM; with SNB-19 CNS, 38.6 µM; in the test with T-47D breast it was above 100 µM; with OVCAR-5 ovarian, 50.6 µM. In addition, the TGI in the test with SNB-75 CNS is 48.7 µM; in the test on CAKI-1 renal, 76.5 µM; in the test on NCI-H23 lung it was 64.2 µM; with MDA-N it was above 100 µM.
With `CC(C)(C)OC(=O)N(CCCCNC(=O)c1ccccc1)CCCNC(=O)c1ccccc1`, the TGI in the test on 786-0 renal, with HOP-62 NSCLC, in the test with RXF 393 renal, with HL-60(TB) leukemia, in the test on M14 melanoma and in the test with SF-268 CNS was above 100 µM throughout. Moreover, the TGI in the test with HCT-116 colon, in the test on HCC-2998 colon, in the test with SF-539 CNS, with MDA-MB-435, in the test with EKVX NSCLC and with OVCAR-3 ovarian was above 100 µM each time. The TGI with SNB-19 CNS, in the test with T-47D breast, in the test with OVCAR-5 ovarian, with SNB-75 CNS, in the test with CAKI-1 renal and in the test on NCI-H226 lung was above 100 µM throughout. Further, the TGI in the test with NCI-H23 lung is above 100 µM.
Turning to `c1ccc2c(c1)ccc1nc3ccccn3c12`, the TGI in the test with 786-0 renal, with HOP-62 NSCLC, with RXF 393 renal, in the test with HL-60(TB) leukemia, in the test with M14 melanoma and in the test on SF-268 CNS was above 100 µM throughout. Also, the TGI in the test with HCC-2998 colon, in the test on SF-539 CNS, in the test with MDA-MB-435, with EKVX NSCLC, in the test with OVCAR-3 ovarian and in the test on SNB-19 CNS was above 100 µM in each case. Moreover, the TGI in the test with T-47D breast, in the test on OVCAR-5 ovarian, in the test on SNB-75 CNS, in the test with NCI-H226 lung and with NCI-H23 lung was above 100 µM in each case.
As to `N#Cc1nc(-c2ccccc2O)oc1N`, the TGI with 786-0 renal, in the test on HOP-62 NSCLC, with RXF 393 renal, in the test with HL-60(TB) leukemia, in the test on M14 melanoma and in the test with SF-268 CNS was above 100 µM in each case. For the same compound, the TGI with HCT-116 colon, in the test on MDA-MB-435, in the test on EKVX NSCLC, in the test with SNB-19 CNS, in the test with OVCAR-5 ovarian and in the test with CAKI-1 renal was above 100 µM each time. In the test on MDA-N, this compound displayed a TGI above 100 µM.
As to `N#Cc1c(N)nc2c(N=Nc3ccccc3)c(N)nn2c1Nc1ccccc1`, the TGI came out at 38.5 µM in the test with 786-0 renal; 39.1 µM in the test on HOP-62 NSCLC; 29.2 µM with RXF 393 renal; 6.56 µM in the test on HL-60(TB) leukemia; 31.5 µM in the test with M14 melanoma; 56.9 µM in the test with SF-268 CNS. For the same compound, the TGI with HCT-116 colon is 27 µM; in the test with SF-539 CNS, 47.2 µM; in the test on MDA-MB-435, 39.6 µM; with EKVX NSCLC, above 100 µM; in the test on OVCAR-3 ovarian it was 35.1 µM; in the test on SNB-19 CNS it was 39.9 µM. Further, the TGI in the test with OVCAR-5 ovarian was 57.7 µM; with SNB-75 CNS, 70.3 µM; in the test on CAKI-1 renal, 29.2 µM; in the test with NCI-H226 lung, 53.9 µM; in the test with NCI-H23 lung it was 21.6 µM; in the test with MDA-N, 38.5 µM.
For `COC(=O)c1ccc(-n2c(C)nc(=O)c(-c3ccccc3)c2C)cc1`, the TGI in the test with 786-0 renal, in the test on HOP-62 NSCLC, in the test with RXF 393 renal, in the test on HL-60(TB) leukemia, in the test with M14 melanoma and in the test with SF-268 CNS was above 100 µM in each case. In addition, the TGI in the test on HCT-116 colon, in the test with HCC-2998 colon, with SF-539 CNS, in the test with MDA-MB-435, in the test with EKVX NSCLC and with OVCAR-3 ovarian was above 100 µM throughout. Besides, the TGI with SNB-19 CNS, with T-47D breast, in the test with OVCAR-5 ovarian, in the test on SNB-75 CNS, in the test on CAKI-1 renal and in the test with NCI-H226 lung was above 100 µM throughout. The compound further had a TGI with NCI-H23 lung above 100 µM.
For the compound `c1csc(-c2cscc2-c2cccs2)c1`, the TGI in the test on 786-0 renal was above 100 µM; in the test on HOP-62 NSCLC, 93.8 µM; in the test on RXF 393 renal, 77.7 µM; in the test on HL-60(TB) leukemia, above 100 µM; in the test with M14 melanoma, above 100 µM; with SF-268 CNS, above 100 µM. Moreover, the TGI with HCT-116 colon was above 100 µM; with HCC-2998 colon it was 82.6 µM; in the test with SF-539 CNS it was 51.4 µM; in the test on MDA-MB-435, above 100 µM; in the test on EKVX NSCLC, above 100 µM; in the test with OVCAR-3 ovarian, 47.3 µM. In addition, the TGI in the test with SNB-19 CNS was above 100 µM; in the test with T-47D breast it was above 100 µM; in the test with OVCAR-5 ovarian, above 100 µM; in the test on SNB-75 CNS, above 100 µM; with CAKI-1 renal, above 100 µM; in the test on NCI-H226 lung, 65.4 µM. The TGI with NCI-H23 lung was above 100 µM.

For the origin of these results see PubChem BioAssay (NCI).
